These results are taken from patent publication US20230159538A1, “PYRROLIDINE-PYRAZOLES AS PYRUVATE KINASE ACTIVATORS” (Global Blood Therapeutics, Inc., priority 2020, published 2023).

The target in experiment [1] is T1, Human pyruvate kinase R (PKR) (Homo sapiens, UniProt P30613).
T1 construct: Human pyruvate kinase R (PKR), residues 14-574; 6x-His (N, cleaved yes); 8x-Arg (N, cleaved yes); SUMO (N, cleaved yes); host or cells: E. coli
Description: Biochemical assay for activation of pyruvate kinase R (Kinase-Glo luminescence, ATP generation). The conditions noted are these: for AC50: 0.1 nM PKR, 2 mM FBP, 0.3 mM ADP, 0.1 mM PEP; for PKR % activation: maximal activation level relative to the activation level achieved by AG-348 @ 10 μM. The method in brief: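 E. coli-expressed human PKR, freed of its His-Arg-SUMO tag and purified by anion exchange and size exclusion, was tested for activation. Read-out was luminescent measurement of ATP generation with Kinase-Glo reagent.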
In general terms: Kinase-Glo reads ATP consumption through a luciferase reaction.

Experiment [2] concerns the target T2, Pyruvate kinase M2 (PKM2) in H1299 cells (Homo sapiens, UniProt P14618).
T2 construct: endogenous in cells; host or cells: H1299
Description: Cell based assay for activation of pyruvate kinase M2 in lung carcinoma cell line (NADH/LDH coupled assay on cell lysate). As to conditions: PKM2 cellular assay; for AC50: H1299 cells, 90 minutes with compound; for PKM2 % activation: maximal activation level relative to the activation level achieved by AG-348 @ 10 μM. The protocol: Cell Based Assay for Activation of Pyruvate Kinase M2 in Lung Carcinoma Cell Line
H1299 cells were seeded in 96-well plates at 2,000 cells/well (100 uL). Treated plates were incubated overnight at 37° C. with 5% CO2. Compounds were diluted in complete media and added to cells in the presence of 1% DMSO. Cells were incubated with compound for 90 minutes at 37° C. and 5% CO2 before washing three times with PBS to remove residual compound and then lysed in lysis buffer (Cell Signaling). […] PKM2 activity was measured at steady state using a coupled enzyme activation system based on NADH consumption. PKM2 produces pyruvate and the coupled system uses lactate dehydrogenase (LDH) to reduce pyruvate to lactate with the concomitant oxidation of NADH to NAD^+. Conversion of NADH to NAD^+ was monitored using a SPECTROstar Nano plate reader (BMG Labtech) at a wavelength of 340 nm and subtraction of background absorbance measured at 750 nm. The change in NADH absorbance after PEP addition was monitored and slope obtained by subtracting baseline at 750 nm followed by least squares fitting to a simple linear regression model. A 10-point curve was generated to calculate the AC50 values by fitting the rates of NADH consumption against increasing concentration of compound.

A word on the AC50: it is the midpoint of the concentration-response curve, whichever way the signal moves.

Where only a bound is given, the exact number is not on record here.

T1 sequence (P30613 14-574): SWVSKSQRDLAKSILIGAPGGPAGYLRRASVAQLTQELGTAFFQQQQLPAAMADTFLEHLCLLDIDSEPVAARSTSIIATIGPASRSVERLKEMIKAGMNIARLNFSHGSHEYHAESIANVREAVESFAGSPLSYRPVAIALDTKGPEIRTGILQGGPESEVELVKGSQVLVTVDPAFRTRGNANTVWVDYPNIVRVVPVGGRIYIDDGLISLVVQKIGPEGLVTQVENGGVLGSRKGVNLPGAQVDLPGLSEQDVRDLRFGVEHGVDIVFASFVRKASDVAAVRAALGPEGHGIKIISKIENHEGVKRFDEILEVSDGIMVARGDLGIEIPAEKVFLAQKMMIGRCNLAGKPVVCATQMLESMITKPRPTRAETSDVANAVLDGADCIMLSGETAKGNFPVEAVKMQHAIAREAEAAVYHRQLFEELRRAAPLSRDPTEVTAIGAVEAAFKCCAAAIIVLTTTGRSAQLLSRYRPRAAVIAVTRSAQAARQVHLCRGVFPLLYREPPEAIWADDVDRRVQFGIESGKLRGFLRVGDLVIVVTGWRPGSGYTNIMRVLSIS
T2 sequence (P14618 2-531 limits assumed): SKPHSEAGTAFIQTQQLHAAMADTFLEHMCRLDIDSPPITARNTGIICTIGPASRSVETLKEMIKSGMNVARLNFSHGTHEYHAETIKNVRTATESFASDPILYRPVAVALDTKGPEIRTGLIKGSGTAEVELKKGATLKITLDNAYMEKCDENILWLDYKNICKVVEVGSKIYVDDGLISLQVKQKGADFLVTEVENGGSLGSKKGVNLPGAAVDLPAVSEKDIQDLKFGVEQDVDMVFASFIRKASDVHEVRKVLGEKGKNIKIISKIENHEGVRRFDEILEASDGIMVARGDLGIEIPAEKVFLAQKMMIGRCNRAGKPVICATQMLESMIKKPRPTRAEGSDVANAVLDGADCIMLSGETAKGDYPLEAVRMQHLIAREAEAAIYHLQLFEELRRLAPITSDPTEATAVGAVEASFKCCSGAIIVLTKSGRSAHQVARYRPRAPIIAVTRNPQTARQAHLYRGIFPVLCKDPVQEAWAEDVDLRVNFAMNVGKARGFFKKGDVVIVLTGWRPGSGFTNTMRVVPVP

For `NC(C(=O)N1Cc2cn(S(=O)(=O)c3ccc4ncsc4c3)nc2C1)c1cccc(C(F)(F)F)c1` (racemic) [Compound 26, 2-amino-1-[2-(1,3-benzothiazole-6-sulfonyl)-2H,4H,5H,6H-pyrrolo[3,4-c]pyrazol-5-yl]-2-[3-(trifluoromethyl)phenyl]ethan-1-one], the concentration at half-maximal activity (AC50) in experiment [1] stood at 72 nM; in experiment [2], 147 nM.

Take `Cc1cc(C(N)C(=O)N2Cc3cn(S(=O)(=O)c4ccc5ncsc5c4)nc3C2)ccc1F` (racemic) [Compound 39, 2-amino-1-[2-(1,3-benzothiazole-6-sulfonyl)-2H,4H,5H,6H-pyrrolo[3,4-c]pyrazol-5-yl]-2-(4-fluoro-3-methylphenyl)ethan-1-one]: the AC50 was 41 nM in experiment [1] and 53 nM in experiment [2].

As to `O=C([C@@H](CO)c1ccccc1)N1Cc2cn(S(=O)(=O)c3ccc4ncsc4c3)nc2C1` (single isomer, unassigned) [Compound 1, (2R)-1-[2-(1,3-benzothiazole-6-sulfonyl)-2H,4H,5H,6H-pyrrolo[3,4-c]pyrazol-5-yl]-3-hydroxy-2-phenylpropan-1-one or (2S)-1-[2-(1,3-benzothiazole-6-sulfonyl)-2H,4H,5H,6H-pyrrolo[3,4-c]pyrazol-5-yl]-3-hydroxy-2-phenylpropan-1-one], in experiment [1], the concentration at half-maximal activity (AC50) is 28 nM and the PKR % activation is recorded as 82%. Further, in experiment [2], the half-maximal activity concentration (AC50) is 33 nM and the PKM2 % activation is 133%.

Turning to `C[C@@H](O)[C@H](C(=O)N1Cc2cn(S(=O)(=O)c3ccc4ncsc4c3)nc2C1)c1ccccc1` (single isomer, unassigned) [Compound 3], in experiment [1], half-maximal activity (AC50) was put at 44 nM and the PKR % activation was determined as 104%. Moreover, in experiment [2], the half-maximal activity concentration (AC50) is 45 nM and the PKM2 % activation is reported as 101%.

As to `CC(O)C(C(=O)N1Cc2cn(S(=O)(=O)c3ccc4ncsc4c3)nc2C1)c1ccccc1` (single isomer, unassigned) [Compound 5], the AC50 in experiment [1] was 82 nM; in experiment [2], 38 nM.

Regarding `O=C([C@@H](CO)c1ccccc1)N1Cc2cn(S(=O)(=O)c3ccc(OC(F)F)cc3)nc2C1` (single isomer, unassigned) [Compound 7, (2R)-1-{2-[4-(difluoromethoxy)benzenesulfonyl]-2H,4H,5H,6H-pyrrolo[3,4-c]pyrazol-5-yl}-3-hydroxy-2-phenylpropan-1-one, or (2S)-1-{2-[4-(difluoromethoxy)benzenesulfonyl]-2H,4H,5H,6H-pyrrolo[3,4-c]pyrazol-5-yl}-3-hydroxy-2-phenylpropan-1-one], in experiment [1], the concentration at half-maximal activity (AC50) was 76 nM and the PKR % activation was 137%. In experiment [2], the AC50 was 22 nM and the PKM2 % activation worked out at 116%.

In experiment [1], `O=C(N1Cc2cn(S(=O)(=O)c3ccc4ncsc4c3)nc2C1)[C@]1(c2ccccn2)CCOC1` (single isomer, unassigned) [Compound 20, 6-({5-[(3S)-3-(pyridin-2-yl)oxolane-3-carbonyl]-2H,4H,5H,6H-pyrrolo[3,4-c]pyrazol-2-yl}sulfonyl)-1,3-benzothiazole or 6-({5-[(3R)-3-(pyridin-2-yl)oxolane-3-carbonyl]-2H,4H,5H,6H-pyrrolo[3,4-c]pyrazol-2-yl}sulfonyl)-1,3-benzothiazole] gave a half-maximal activity concentration (AC50) of 44 nM and a PKR % activation of 113%. In experiment [2], the AC50 was found to be 14 nM and the PKM2 % activation is recorded as 60%.

In experiment [1], `O=C([C@@H](CO)c1ccccc1)N1Cc2cn(S(=O)(=O)c3ccc4c(c3)NCCO4)nc2C1` (single isomer, unassigned) [Compound 22, (2R)-1-[2-(3,4-dihydro-2H-1,4-benzoxazine-6-sulfonyl)-2H,4H,5H,6H-pyrrolo[3,4-c]pyrazol-5-yl]-3-hydroxy-2-phenylpropan-1-one or (2S)-1-[2-(3,4-dihydro-2H-1,4-benzoxazine-6-sulfonyl)-2H,4H,5H,6H-pyrrolo[3,4-c]pyrazol-5-yl]-3-hydroxy-2-phenylpropan-1-one] yielded a concentration at half-maximal activity (AC50) of 50 nM and a PKR % activation of 99%. Further, in experiment [2], the AC50 is 33 nM and the PKM2 % activation turned out to be 79%.

Consider `O=C([C@@H](CO)c1ccccc1)N1Cc2cn(S(=O)(=O)c3ccc4c(c3)OCCO4)nc2C1` (single isomer, unassigned) [Compound 25, (2R)-1-[2-(2,3-dihydro-1,4-benzodioxine-6-sulfonyl)-2H,4H,5H,6H-pyrrolo[3,4-c]pyrazol-5-yl]-3-hydroxy-2-phenylpropan-1-one or (2S)-1-[2-(2,3-dihydro-1,4-benzodioxine-6-sulfonyl)-2H,4H,5H,6H-pyrrolo[3,4-c]pyrazol-5-yl]-3-hydroxy-2-phenylpropan-1-one], for which, in experiment [1], the activity was half-maximal at 19 nM (AC50) and the PKR % activation turned out to be 44%. Besides, in experiment [2], the AC50 is 31 nM and the PKM2 % activation was determined as 42%.

In experiment [1], `Cc1cccc([C@@]2(C(=O)N3Cc4cn(S(=O)(=O)c5ccc6ncsc6c5)nc4C3)CCOC2)n1` (single isomer, unassigned) [Compound 35, 6-({5-[(3S)-3-(6-methylpyridin-2-yl)oxolane-3-carbonyl]-2H,4H,5H,6H-pyrrolo[3,4-c]pyrazol-2-yl}sulfonyl)-1,3-benzothiazole or 6-({5-[(3R)-3-(6-methylpyridin-2-yl)oxolane-3-carbonyl]-2H,4H,5H,6H-pyrrolo[3,4-c]pyrazol-2-yl}sulfonyl)-1,3-benzothiazole] registered a half-maximal activity concentration (AC50) of 62 nM and a PKR % activation of 115%. In experiment [2], the concentration at half-maximal activity (AC50) amounted to 93 nM and the PKM2 % activation stood at 89%.

With `O=S(=O)(c1ccc2c(c1)NCCO2)N1Cc2cn(S(=O)(=O)c3ccc4ncsc4c3)nc2C1` [Compound 12, 6-{[2-(1,3-benzothiazole-6-sulfonyl)-2H,4H,5H,6H-pyrrolo[3,4-c]pyrazol-5-yl]sulfonyl}-3,4-dihydro-2H-1,4-benzoxazine], the concentration at half-maximal activity (AC50) in experiment [1] was determined as 41 nM; in experiment [2] it was 23 nM.

Take `Cn1ncc2ccc(S(=O)(=O)n3cc4c(n3)CN(C(=O)[C@H](CO)c3ccccc3)C4)cc21` [Compound 90, (2S)-3-hydroxy-1-{2-[(1-methyl-1H-indazol-6-yl)sulfonyl]-2H,4H,5H,6H-pyrrolo[3,4-c]pyrazol-5-yl}-2-phenylpropan-1-one]: the half-maximal activity concentration (AC50) in experiment [1] was 430 nM.

`O=C([C@H](CO)c1ccccc1)N1Cc2cn(S(=O)(=O)c3ccc4c(cnn4C(F)F)c3)nc2C1` [Compound 91, (2S)-1-(2-{[1-(difluoromethyl)-1H-indazol-5-yl]sulfonyl}-2H,4H,5H,6H-pyrrolo[3,4-c]pyrazol-5-yl)-3-hydroxy-2-phenylpropan-1-one] returned an AC50 in experiment [1] of 14 nM.

`O=C([C@H](CO)c1ccccc1)N1Cc2cn(S(=O)(=O)c3ccc4nccnc4c3)nc2C1` [Compound 94, (2S)-3-hydroxy-2-phenyl-1-[2-(quinoxaline-6-sulfonyl)-2H,4H,5H,6H-pyrrolo[3,4-c]pyrazol-5-yl]propan-1-one] returned a concentration at half-maximal activity (AC50) in experiment [1] of 17 nM.

In experiment [1], `O=C([C@H](CO)c1ccccc1)N1Cc2cn(S(=O)(=O)c3ccc(OC4COC4)nc3)nc2C1` [Compound 95, (2S)-3-hydroxy-1-(2-{[6-(oxetan-3-yloxy)pyridin-3-yl]sulfonyl}-2H,4H,5H,6H-pyrrolo[3,4-c]pyrazol-5-yl)-2-phenylpropan-1-one] displayed an AC50 of 7080 nM.

Turning to `CN1Cc2cc(S(=O)(=O)n3cc4c(n3)CN(C(=O)[C@H](CO)c3ccccc3)C4)ccc2OC1=O` [Compound 96, 6-({5-[(2S)-3-hydroxy-2-phenylpropanoyl]-2H,4H,5H,6H-pyrrolo[3,4-c]pyrazol-2-yl}sulfonyl)-3-methyl-3,4-dihydro-2H-1,3-benzoxazin-2-one], in experiment [1], the activity was half-maximal at 53 nM (AC50).

Take `O=C([C@H](CO)c1ccccc1)N1Cc2cn(S(=O)(=O)c3ccc(OC4CC4)nc3)nc2C1` [Compound 97, (2S)-1-{2-[(6-cyclopropoxypyridin-3-yl)sulfonyl]-2H,4H,5H,6H-pyrrolo[3,4-c]pyrazol-5-yl}-3-hydroxy-2-phenylpropan-1-one]: the half-maximal activity concentration (AC50) in experiment [1] was above 10000 nM.

For the molecule `O=C([C@H](CO)c1ccccc1)N1Cc2cn(S(=O)(=O)c3ccc(C4CC4)nc3)nc2C1` [Compound 101, (2S)-1-{2-[(6-cyclopropylpyridin-3-yl)sulfonyl]-2H,4H,5H,6H-pyrrolo[3,4-c]pyrazol-5-yl}-3-hydroxy-2-phenylpropan-1-one], half-maximal activity in experiment [1] (AC50) was put at 41 nM.

`O=C([C@H](NCCO)c1ccccc1F)N1Cc2cn(S(=O)(=O)c3ccc4ncccc4c3)nc2C1` [Compound 106, (2R)-2-(2-fluorophenyl)-2-[(2-hydroxyethyl)amino]-1-[2-(quinoline-6-sulfonyl)-2H,4H,5H,6H-pyrrolo[3,4-c]pyrazol-5-yl]ethan-1-one]: the activity in experiment [1] was half-maximal at 44 nM (AC50).
